In patent US11806342B2, “Diiodohydroxyquinoline for the treatment of clostridium difficile infection” (Purdue Research Foundation, priority 2019, dated 2023):
In brackets after ≈: the same amount, converted by molar mass.

Experiments:
[1] = system: C. difficile P11; experiment: MIC and MBC, broth microdilution; type: cell-based, Clostridium difficile; conditions: Clostridioides difficile, P11
Procedure: (§1) MIC50 and MIC90 are the minimum concentration of each agent that inhibited growth of 50% and 90% of the tested isolates, respectively. The minimum bactericidal concentration (MBC) of these drugs was tested by plating 5 μL from wells with no growth onto BHIS agar plates. The MBC was categorized as the lowest concentration that reduced bacterial growth by 99.9% MIC50 and MIC90 are the minimum concentration of each agent that inhibited the growth of 50% and 90% of the tested isolates, respectively. The minimum bactericidal concentration (MBC) of these drugs was tested by plating 5 μL from wells with no growth onto BHIS agar plates. The MBC was categorized as the lowest concentration that reduced bacterial growth by 99.9% [29-31].

[2] = system: C. difficile NR-49290; experiment: MIC and MBC, broth microdilution; type: cell-based, Clostridium difficile; conditions: Clostridioides difficile, NR49290
Procedure: as §1

[3] = system: C. difficile NR-49277; experiment: MIC and MBC, broth microdilution; type: cell-based, Clostridium difficile; conditions: Clostridioides difficile, NR49277
Procedure: as §1

[4] = system: C. difficile P24; experiment: MIC and MBC, broth microdilution; type: cell-based, Clostridium difficile; conditions: Clostridioides difficile, P24
Procedure: as §1

[5] = system: C. difficile HM-89; experiment: MIC and MBC, broth microdilution; type: cell-based, Clostridium difficile; conditions: Clostridioides difficile, HM89
Procedure: as §1

[6] = system: C. difficile I1; experiment: MIC and MBC, broth microdilution; type: cell-based, Clostridium difficile; conditions: Clostridioides difficile, I1
Procedure: as §1

[7] = system: C. difficile I4; experiment: MIC and MBC, broth microdilution; type: cell-based, Clostridium difficile; conditions: Clostridioides difficile, I4
Procedure: as §1

[8] = system: C. difficile ATCC BAA-1870; experiment: MIC and MBC, broth microdilution; type: cell-based, Clostridium difficile; conditions: Clostridioides difficile, ATCCBAA1870
Procedure: as §1

[9] = system: C. difficile I2; experiment: MIC and MBC, broth microdilution; type: cell-based, Clostridium difficile; conditions: Clostridioides difficile, I2
Procedure: as §1

[10] = system: C. difficile NR-49286; experiment: MIC and MBC, broth microdilution; type: cell-based, Clostridium difficile; conditions: Clostridioides difficile, NR49286
Procedure: as §1

[11] = system: C. difficile ATCC 700057; experiment: MIC and MBC, broth microdilution; type: cell-based, Clostridium difficile; conditions: Clostridioides difficile, ATCC700057
Procedure: as §1

[12] = system: C. difficile P1; experiment: MIC and MBC, broth microdilution; type: cell-based, Clostridium difficile; conditions: Clostridioides difficile, P1
Procedure: as §1

[13] = system: C. difficile P2; experiment: MIC and MBC, broth microdilution; type: cell-based, Clostridium difficile; conditions: Clostridioides difficile, P2
Procedure: as §1

[14] = system: C. difficile P8; experiment: MIC and MBC, broth microdilution; type: cell-based, Clostridium difficile; conditions: Clostridioides difficile, P8
Procedure: as §1

[15] = system: C. difficile ATCC 9689; experiment: MIC and MBC, broth microdilution; type: cell-based, Clostridium difficile; conditions: Clostridioides difficile, ATCC9689
Procedure: as §1

[16] = system: C. difficile NR-49284; experiment: MIC and MBC, broth microdilution; type: cell-based, Clostridium difficile; conditions: Clostridioides difficile, NR49284
Procedure: as §1

[17] = system: C. difficile P7; experiment: MIC and MBC, broth microdilution; type: cell-based, Clostridium difficile; conditions: Clostridioides difficile, P7
Procedure: as §1

[18] = system: C. difficile NR-49281; experiment: MIC and MBC, broth microdilution; type: cell-based, Clostridium difficile; conditions: Clostridioides difficile, NR49281
Procedure: as §1

[19] = system: C. difficile P13; experiment: MIC and MBC, broth microdilution; type: cell-based, Clostridium difficile; conditions: Clostridioides difficile, P13
Procedure: as §1

[20] = system: C. difficile ATCC 43598; experiment: MIC and MBC, broth microdilution; type: cell-based, Clostridium difficile; conditions: Clostridioides difficile, ATCC43598
Procedure: as §1

[21] = system: Bacteroides fragilis HM-711; experiment: MIC against normal gut microflora, broth microdilution; type: cell-based; conditions: Bacteroides fragilis, HM711
Procedure: (§2) In vitro antimicrobial evaluation of diiodohydroxyquinoline against normal microflora. The broth microdilution assay was utilized to determine the MICs of DIHQ and control antibiotics against commensal organisms that compose he human gut microflora, as described elsewhere. A bacterial solution equivalent to 0.5 McFarland standard was prepared and diluted in BHIS broth (for Bifidobacterium and Bacteroides) or in MRS broth (for Lactobacillus) to achieve a bacterial concentration of about 5×10^5 CFU/mL. Then, drugs were added and serially diluted along the plates.

[22] = system: Bacteroides dorei HM-719; experiment: as above; type: cell-based; conditions: Phocaeicola dorei, HM719
Procedure: as §2

[23] = system: Bifidobacterium angulatum HM-1189; experiment: as above; type: cell-based; conditions: Bifidobacterium angulatum, HM1189
Procedure: as §2

[24] = system: Lactobacillus casei ATCC 334; experiment: as above; type: cell-based; conditions: Lacticaseibacillus casei, ATCC334
Procedure: as §2

[25] = system: Bifidobacterium breve HM-1120; experiment: as above; type: cell-based; conditions: Bifidobacterium breve, HM1120
Procedure: as §2

[26] = system: C. difficile NR-49277; experiment: Time kill kinetics assay; type: cell-based, Clostridium difficile; conditions: C. difficile NR-49277, 5×MIC, 24 hours
Procedure: (§3) Time kill kinetics assay. In order to examine the killing kinetics of DIHQ, a time kill kinetics assay was performed against Clostridium difficile ATCC BAA 1870 and C. difficile NR-49277 as described previously. […] Aliquots were collected from each treatment after 0, 4, 6, 8, 12, and 24 hours of incubation at 37° C. and subsequently serially diluted and plated for viable CFU/mL determination.

[27] = system: C. difficile ATCC BAA-1870; experiment: Time kill kinetics assay; type: cell-based, Clostridium difficile; conditions: C. difficile ATCC BAA-1870, 5×MIC, 24 hours
Procedure: as §3

CN[C@H](CC(C)C)C(=O)N[C@H]1C(=O)N[C@@H](CC(N)=O)C(=O)N[C@H]2C(=O)N[C@H]3C(=O)N[C@H](C(=O)N[C@H](C(=O)O)c4cc(O)cc(O)c4-c4cc3ccc4O)[C@H](O)c3ccc(c(Cl)c3)Oc3cc2cc(c3O[C@@H]2O[C@H](CO)[C@@H](O)[C@H](O)[C@H]2O[C@H]2C[C@](C)(N)[C@H](O)[C@H](C)O2)Oc2ccc(cc2Cl)[C@H]1O [Vancomycin, vancomycin]
MBC [1]: 1 mg/L (≈ 0.69 µM) | MIC [1]: 1 mg/L (≈ 0.69 µM) | MBC [2]: 1 mg/L (≈ 0.69 µM) | MIC [2]: 0.5 mg/L (≈ 0.345 µM) | MBC [3]: 1 mg/L (≈ 0.69 µM) | MIC [3]: 1 mg/L (≈ 0.69 µM) | MBC [4]: 0.5 mg/L (≈ 0.345 µM) | MIC [4]: 0.5 mg/L (≈ 0.345 µM) | MBC [5]: 1 mg/L (≈ 0.69 µM) | MIC [5]: 1 mg/L (≈ 0.69 µM) | MBC [6]: 1 mg/L (≈ 0.69 µM) | MIC [6]: 1 mg/L (≈ 0.69 µM) | MBC [7]: 0.5 mg/L (≈ 0.345 µM) | MIC [7]: 0.5 mg/L (≈ 0.345 µM) | MBC [8]: 1 mg/L (≈ 0.69 µM) | MIC [8]: 1 mg/L (≈ 0.69 µM) | MBC [9]: 1 mg/L (≈ 0.69 µM) | MIC [9]: 1 mg/L (≈ 0.69 µM) | MBC [10]: 0.5 mg/L (≈ 0.345 µM) | MIC [10]: 0.25 mg/L (≈ 0.173 µM) | MBC [11]: 0.5 mg/L (≈ 0.345 µM) | MIC [11]: 0.5 mg/L (≈ 0.345 µM) | MBC [12]: 0.5 mg/L (≈ 0.345 µM) | MIC [12]: 0.5 mg/L (≈ 0.345 µM) | MBC [13]: 1 mg/L (≈ 0.69 µM) | MIC [13]: 1 mg/L (≈ 0.69 µM) | MBC [14]: 1 mg/L (≈ 0.69 µM) | MIC [14]: 1 mg/L (≈ 0.69 µM) | MBC [15]: 1 mg/L (≈ 0.69 µM) | MIC [15]: 0.5 mg/L (≈ 0.345 µM) | MBC [16]: 0.5 mg/L (≈ 0.345 µM) | MIC [16]: 0.25 mg/L (≈ 0.173 µM) | MBC [17]: 0.5 mg/L (≈ 0.345 µM) | MIC [17]: 0.5 mg/L (≈ 0.345 µM) | MBC [18]: 0.25 mg/L (≈ 0.173 µM) | MIC [18]: 0.25 mg/L (≈ 0.173 µM) | MBC [19]: 0.5 mg/L (≈ 0.345 µM) | MIC [19]: 0.5 mg/L (≈ 0.345 µM) | MBC [20]: 1 mg/L (≈ 0.69 µM) | MIC [20]: 1 mg/L (≈ 0.69 µM) | MIC [21]: 128 mg/L (≈ 88.3 µM) | MIC [22]: 64 mg/L (≈ 44.2 µM) | MIC [23]: ≤ 1 mg/L | MIC [24]: > 128 mg/L | MIC [25]: ≤ 1 mg/L | reduction of bacterial burden within 24 hours [26]: 1.22 log10 CFU/mL | reduction of bacterial burden within 24 hours [27]: 1.7 log10 CFU/mL
